Test results as given in US12485103B2, “Insulin secretion-promoting agent and blood sugar level improver using same, diabetes improver, and food” (REFINE HOLDINGS CO., LTD., priority 2019, dated 2025).

Test system: cell lines derived from mouse pancreatic β-cells
Test: Insulin secretion into the culture medium measured by ELISA
Format: cell-based
Conditions: low- and high-glucose Ringer's solutions; 1 μg/mL or 10 μg/mL (any concentration); stimulated for 30 minutes
Description: Low- and high-glucose Ringer's solutions in the presence of 10 μg/mL pentadecanoic acid triglyceride were added in vitro to cell lines derived from mouse pancreatic β-cells. The cells were then stimulated for 30 minutes.
Separately, as a control, ethanol at concentration of 0.1% (v/v) were added to the cells.
Insulin secreted into the culture medium was measured by ELISA.
Low- and high-glucose Ringer's solutions in the presence of 1 μg/mL or 10 μg/mL pentadecanoic acid (PA in the Figure) were added in vitro to cell lines derived from mouse pancreatic β-cells. The cells were then stimulated for 30 minutes.

Question: How did the “effect on insulin secretion” value turn out when `CCCCCCCCCCCCCCC(=O)O` [pentadecanoic acid] was run?
Answer: no effect
